{
  "source": "paper PMC10329798",
  "about": "(Virology Journal, 2023)",
  "key": {"[1]": {"biological_target": "T1, SARS-CoV-2 E protein (2-E) (Severe acute respiratory syndrome coronavirus 2, UniProt P0DTC4)", "T1 sequence (P0DTC4 whole entry)": "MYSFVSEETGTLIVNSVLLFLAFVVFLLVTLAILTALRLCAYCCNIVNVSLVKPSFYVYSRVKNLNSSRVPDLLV", "experiment": "cell-based", "format": "biochemical"}, "[2]": {"biological_target": "T1, SARS-CoV-2 E protein (2-E)", "experiment": "cell-based"}, "SARS-CoV E protein (1-E)": {"tested_on": "SARS-CoV E protein (1-E)", "conditions": "1-E protein, cell viability assay; read-out: IC50, inhibition data from published 1-E protein; cited from earlier work"}, "SARS-CoV-2": {"tested_on": "SARS-CoV-2", "conditions": "in vitro, Vero-h/SLAM cells; cited from earlier work"}, "[3]": {"conditions": "read-out: IC50, patch-clamp electrophysiology, 2-E"}, "[4]": {"conditions": "read-out: IC50, cell viability assay, 2-E protein"}},
  "note": "Where two headings read alike, the source gives them in different places.",
  "data": [
    {"compound": "NC(N)=NC(=O)c1nc(Cl)c(N2CCCCCC2)nc1N", "note": "[HMA, 5-(N,N-hexamethylene)amiloride]", "values": [
      {"measurement": "IC50", "setting": "[1]; [3]", "result": "1.9 ± 0.3", "unit": "nM"},
      {"measurement": "IC50", "setting": "[2]; [4]", "result": "1500 ± 300", "unit": "nM"},
      {"measurement": "IC50", "setting": "SARS-CoV E protein (1-E)", "result": "2600 ± 400", "unit": "nM"},
      {"measurement": "Concentration with cytotoxic effects / onset of cell toxicity", "setting": "HEK293 cells", "result": "> 10", "unit": "µM"}
    ]},
    {"compound": "CC1=C[C@H]2C(=O)O[C@H]3C[C@@H](C/C=C(\\C)C[C@@H](C)/C=C/C=C4\\CO[C@H]([C@@H]1O)[C@@]42O)O[C@]1(C3)C[C@H](O)[C@H](C)[C@@H](/C(C)=C/C(C)C)O1", "note": "[nemadectin]", "values": [
      {"measurement": "IC50, patch-clamp electrophysiology, 2-E", "setting": "[1]", "result": "not active"},
      {"measurement": "Inhibition of 2-E protein-mediated currents", "setting": "[1]; any of the tested concentrations", "result": "did not observe inhibition"},
      {"measurement": "Concentration with cytotoxic effects / onset of cell toxicity", "setting": "HEK293 cells; human", "result": 2, "unit": "µM"}
    ]},
    {"compound": "CC(N)C12CC3CC(CC(C3)C1)C2", "note": "(stereo not drawn) [rimantadine]", "values": [
      {"measurement": "IC50", "setting": "[1]", "result": "3.6 ± 0.6", "unit": "nM"},
      {"measurement": "IC50", "setting": "[2]", "result": "8900 ± 2200", "unit": "nM"},
      {"measurement": "IC50", "setting": "SARS-CoV E protein (1-E)", "result": "10900 ± 3300", "unit": "nM"},
      {"measurement": "Concentration with cytotoxic effects / onset of cell toxicity", "setting": "HEK293 cells", "result": "not cytotoxic"}
    ]},
    {"compound": "CCC(C)C1OC2(CCC1C)CC1CC(CC=C(C)C(O)C(C)C=CC=C3COC4C(O)C(C)=CC(C(=O)O1)C34O)O2", "note": "(stereo not drawn) [ivermectin aglycon]", "values": [
      {"measurement": "IC50", "setting": "[1]; [3]", "result": "5 ± 1.3", "unit": "nM"}
    ]},
    {"compound": "ivermectin", "values": [
      {"measurement": "Reduction in SARS-CoV-2 viral RNA", "setting": "SARS-CoV-2", "result": 5000, "unit": "fold"},
      {"measurement": "IC50", "setting": "[1]; [3]", "result": "0.88 ± 0.1", "unit": "nM"},
      {"measurement": "Inhibition of the 2-E protein in the cell viability assay", "setting": "[2]", "result": "showed inhibiting effects"}
    ]},
    {"compound": "NC12CC3CC(CC(C3)C1)C2", "note": "[amantadine]", "values": [
      {"measurement": "IC50", "setting": "[1]; [3]", "result": "24.1 ± 6.5", "unit": "nM"},
      {"measurement": "IC50", "setting": "[2]; [4]", "result": "89000 ± 27000", "unit": "nM"},
      {"measurement": "IC50", "setting": "SARS-CoV E protein (1-E)", "result": "77000 ± 13000", "unit": "nM"},
      {"measurement": "Concentration with cytotoxic effects / onset of cell toxicity", "setting": "HEK293 cells", "result": "not cytotoxic"}
    ]},
    {"compound": "CC1=C[C@H]2C(=O)O[C@H]3C[C@@H](C/C=C(\\C)C[C@@H](C)/C=C/C=C4\\CO[C@H]([C@@H]1O)[C@@]42O)O[C@@]1(CC[C@H](C)[C@@H](C)O1)C3", "note": "[milbemycin]", "values": [
      {"measurement": "IC50", "setting": "[1]", "result": "2.21 ± 0.65", "unit": "nM"},
      {"measurement": "Concentration with cytotoxic effects / onset of cell toxicity", "setting": "HEK293 cells; human", "result": "~ 10 µM"}
    ]}
  ]
}
